≈ marks a conversion by molar mass, not a printed value. Where “and” joins values, the source holds several entries; their conditions need not be identical. Equal entries are not always repeated. Where two headings read alike, the source gives them in different places. Marks after values point to notes of the source that are not given here.
Columns and labels:
[1] = test system: Balb/C mice; assay: Climbing net test; format: in vivo; details: 2 mg/kg gavage 30 min before alcohol; vertical metal net
Procedure: Climbing Net Test • Groups design and treatment before experiment are as the same as that in deintoxication test. […] 30 minutes later all mice administrated alcohol (liquid Erguotou, ethonol concentration was diluted to 30%) 0.2 mL/kg BW and placed on a vertical metal net and measured the time when mice climbed on net.

[2] = test system: Balb/C mice; assay: Anti-alcoholism test (agent 30 min after alcohol); format: in vivo
Source text: Anti-Alcoholism Tests • Groups design and treatment before experiment are as the same as that in Deintoxication test. […]

[3] = test system: Balb/C mice; assay: Deintoxication test (agent 30 min before alcohol)
[4] = test system: mice; assay: Acute toxicity, intraperitoneal administration (mortality, LD50, body weight, dietary); format: in vivo; details: for Dead number: 20 mice; for Dead number / mortality: 7 days
Procedure: (§1) Acute Toxicity • Compounds PDHM/TDHM.
(§2) 140 mice were divided into 7 groups (n=20), each group include 10 males and 10 females, they were treated with different concentrations of dosages and observed for 7 days. Specific experimental groups and experimental results were noted below. Note: Section 1-6 group compound are PDHM groups, and group 7 is a negative control group.
(§3) 140 mice were divided into 7 groups (n=20), each group include 10 males and 10 females, they were treated with different concentrations of dosage and observed for 7 days. Note: Section 1-6 group compound are PDHM groups, and group 7 is a negative control group.

[5] = as above; format: in vivo, mice; details: both sexes, mouse, in vivo, ip, mice, i.p., observed 7 days
Procedure: as §1, §2, §3

[6] = test system: mice; assay: Acute toxicity, intragastric administration (maximum tolerated dose); details: for average body weight of mice / dietary change-by-day of mice: PDHM MTD 3750 mg/kg i.g.
[7] = as above; details: both, mouse, in vivo, po, 1250 mg/kg
[8] = test system: Balb/C mice; assay: Plasma EtOH concentration assay; format: in vivo; details: intragastric 2 mg/kg
Procedure: Plasma EtOH Concentration Assay. • Blood samples from the tail vein of mice at different time points (0, 15, 30, 45, 60, 90, 120, 240, 480 and 720 minutes) after EtOH (30% ethanol, 0.2 ml/kg bw) or TDHM (2 mg/kg bw), PDHM (2 mg/kg bw) or DHM (2 mg/kg bw) gavage were collected for plasma EtOH concentrations (plasma [EtOH]) assays. (“BW” or “bw”: body weight) • Briefly, the Balb/C mice were put into a restraint tube and the tail was warmed at 37° C. The tail vein at the tip of the tail was punched with a sharp blade. Approximately 0.2 ml venous blood was dropped to a capillary blood collection tube containing lithium heparin (Ram Scientific). Blood samples were centrifuged at 2500 rpm for 20 min. The supernatant was collected and stored at −80° C. until assay. The EtOH content of each blood sample was measured in duplicate along with EtOH standards using the alcohol oxidase reaction procedures (EnzyChrom™ Ethanol Acid Assay Kit, ECET-100) (Liang et al., 2007). The sample preparations were the same as described above.

[9] = physchem; details: water
[10] = 2 mg/kg gavage 30 min after 30% ethanol
[11] = 2 mg/kg gavage 30 min after 30% ethanol, 20 mice
[12] = 2 mg/kg gavage 30 min before 30% ethanol
[13] = agents intragastric 30 minutes before drinking

SMILES: O=C1c2c(O)cc(O)cc2O[C@H](c2cc(O)c(O)c(O)c2)[C@H]1O [PDHM, piperidinium 2,3-dihydroxy-5-((2R,3R)-3,5,7-trihydroxy-4-oxochroman-2-yl)phenolate]
- climbing [1]: 392.25 ± 76.67^#& min
- Sleep time M ± SD [2, 10]: 107.71 ± 36.87*^& min
- Tolerance time M ± SD [2, 10]: 22.14 ± 15 min
- Dead number [2, 11]: 2 piece
- Rate of drunk [2, 11]: 10%
- sleep time in drunk mice comparing with DHM ([2]; 2 mg/kg gavage 30 min after alcohol): remarkably shorten
- Sleep time M ± SD [3, 12]: 125.33 ± 33.75 min
- Tolerance time M ± SD [3, 12]: 25.43 ± 10.80 min
- Dead number ([3]; 2 mg/kg gavage 30 min before 30% ethanol, 20 mice): 2 piece
- holding time comparing with DHM [3, 13]: shorten
- tolerance time of righting reflex disappearing comparing with DHM [3, 13]: obviously prolonged
- Dead number ([4]; PDHM 853.27 mg/kg i.p.): 0
- mortality ([4]; PDHM 853.27 mg/kg i.p.): 0%
- average dietary of mice ([4]; PDHM 853.27 mg/kg i.p., D1): 3.79 g
- average dietary of mice ([4]; PDHM 853.27 mg/kg i.p., D2): 4.58 g
- average dietary of mice ([4]; PDHM 853.27 mg/kg i.p., D3): 3.6 g
- average dietary of mice ([4]; PDHM 853.27 mg/kg i.p., D4): 4.92 g
- average dietary of mice ([4]; PDHM 853.27 mg/kg i.p., D5): 5.76 g
- average dietary of mice ([4]; PDHM 853.27 mg/kg i.p., D6): 5.31 g
- average dietary of mice ([4]; PDHM 853.27 mg/kg i.p., D7): 5.83 g
- Dead number ([4]; PDHM 874.6 mg/kg i.p.): 6
- mortality ([4]; PDHM 874.6 mg/kg i.p.): 30%
- average dietary of mice ([4]; PDHM 874.6 mg/kg i.p., D1): 3.91 g
- average dietary of mice ([4]; PDHM 874.6 mg/kg i.p., D2): 4.73 g
- average dietary of mice ([4]; PDHM 874.6 mg/kg i.p., D3): 5.81 g
- average dietary of mice ([4]; PDHM 874.6 mg/kg i.p., D4): 5.43 g
- average dietary of mice ([4]; PDHM 874.6 mg/kg i.p., D5): 4.97 g
- average dietary of mice ([4]; PDHM 874.6 mg/kg i.p., D6): 5.88 g
- average dietary of mice ([4]; PDHM 874.6 mg/kg i.p., D7): 5.72 g
- Dead number ([4]; PDHM 896.47 mg/kg i.p.): 10
- mortality ([4]; PDHM 896.47 mg/kg i.p.): 50%
- average dietary of mice ([4]; PDHM 896.47 mg/kg i.p., D1): 3.35 g
- average dietary of mice ([4]; PDHM 896.47 mg/kg i.p., D2): 4.92 g
- average dietary of mice ([4]; PDHM 896.47 mg/kg i.p., D3): 5.78 g
- average dietary of mice ([4]; PDHM 896.47 mg/kg i.p., D4): 6.04 g
- average dietary of mice ([4]; PDHM 896.47 mg/kg i.p., D5): 5.72 g
- average dietary of mice ([4]; PDHM 896.47 mg/kg i.p., D6): 5.34 g
- average dietary of mice ([4]; PDHM 896.47 mg/kg i.p., D7): 5.65 g
- Dead number ([4]; PDHM 918.88 mg/kg i.p.): 12
- mortality ([4]; PDHM 918.88 mg/kg i.p.): 60%
- average dietary of mice ([4]; PDHM 918.88 mg/kg i.p., D1): 4.21 g
- average dietary of mice ([4]; PDHM 918.88 mg/kg i.p., D2): 4.79 g
- average dietary of mice ([4]; PDHM 918.88 mg/kg i.p., D3): 5.21 g
- average dietary of mice ([4]; PDHM 918.88 mg/kg i.p., D4): 6.08 g
- average dietary of mice ([4]; PDHM 918.88 mg/kg i.p., D5): 5.83 g
- average dietary of mice ([4]; PDHM 918.88 mg/kg i.p., D6): 6.24 g
- average dietary of mice ([4]; PDHM 918.88 mg/kg i.p., D7): 5.13 g
- Dead number ([4]; PDHM 941.85 mg/kg i.p.): 18
- mortality ([4]; PDHM 941.85 mg/kg i.p.): 90%
- average dietary of mice ([4]; PDHM 941.85 mg/kg i.p., D1): 4.76 g
- average dietary of mice ([4]; PDHM 941.85 mg/kg i.p., D2): 3.92 g
- average dietary of mice ([4]; PDHM 941.85 mg/kg i.p., D3): 4.66 g
- average dietary of mice ([4]; PDHM 941.85 mg/kg i.p., D4): 5.82 g
- average dietary of mice ([4]; PDHM 941.85 mg/kg i.p., D5): 6.15 g
- average dietary of mice ([4]; PDHM 941.85 mg/kg i.p., D6): 5.79 g
- average dietary of mice ([4]; PDHM 941.85 mg/kg i.p., D7): 5.43 g
- Dead number ([4]; PDHM 965.4 mg/kg i.p.): 20
- mortality ([4]; PDHM 965.4 mg/kg i.p.): 100%
- average dietary of mice ([4]; PDHM 965.4 mg/kg i.p., D1): 0 g
- average dietary of mice ([4]; PDHM 965.4 mg/kg i.p., D2): 0 g
- average dietary of mice ([4]; PDHM 965.4 mg/kg i.p., D3): 0 g
- average dietary of mice ([4]; PDHM 965.4 mg/kg i.p., D4): 0 g
- average dietary of mice ([4]; PDHM 965.4 mg/kg i.p., D5): 0 g
- average dietary of mice ([4]; PDHM 965.4 mg/kg i.p., D6): 0 g
- average dietary of mice ([4]; PDHM 965.4 mg/kg i.p., D7): 0 g
- effect on dietary and body weight ([4]; mice): no significant effect
- LD50 ([4]; mice, i.p., observed 7 days): 888.79 to 914.58 mg/kg and 748.69 mg/kg
- LD50 at 7 days ([5]; read-out: 95% confidence limit of LD50): 743 to 755 mg/kg
- LD50 at 7 days ([5]; read-out: LD50): 902 mg/kg
- average body weight of mice ([6]; D1): 1.97 g
- dietary change-by-day of mice ([6]; D1): 5.98 g
- average body weight of mice ([6]; D2): 3.47 g
- dietary change-by-day of mice ([6]; D2): 6.1 g
- average body weight of mice ([6]; D3): 4.77 g
- dietary change-by-day of mice ([6]; D3): 6.03 g
- average body weight of mice ([6]; D4): 6.37 g
- dietary change-by-day of mice ([6]; D4): 6.14 g
- average body weight of mice ([6]; D5): 7.38 g
- dietary change-by-day of mice ([6]; D5): 6.48 g
- average body weight of mice ([6]; D6): 8.41 g
- dietary change-by-day of mice ([6]; D6): 6.32 g
- average body weight of mice ([6]; D7): 9.67 g
- dietary change-by-day of mice ([6]; D7): 6.57 g
- pathological examination of stomach, liver, kidney ([6]; mice at MTD, end of 7-day observation): no obvious degeneration, necrosis and other changes
- pathology changes in livers, kidneys, hearts and lungs ([6]; mice of the toxicity experiments): No degeneration and necrosis pathology changes
- deaths in preliminary experiments ([6]; mice, different doses, gavage once, observed 7 days): no deaths occurred
- deaths during the observation period at MTD ([6]; mice, gavage three times a day, 7 days): No deaths
- MTD at 7 days [7]: 3750 mg/kg
- blood alcohol concentration vs control group treated with saline [8]: significantly decreased
- reduction of blood alcohol concentration compared with DHM [8]: better beneficial effect than DHM
- solubility [9]: 5000 µg/mL (≈ 15.6 mM)
